Assay results reported in US9156845B2, “4-(substituted amino)-7H-pyrrolo[2,3-d] pyrimidines as LRRK2 inhibitors” (Pfizer Inc., priority 2012, dated 2015).
Like-named read-outs stand apart in the source and are kept apart here.

Assays:
Assay in all cases: ActivX kinase probe assay (human PBMC)
Type in all cases: binding
MAP2K4 = MAP2K4 (Homo sapiens (Human), UniProt P45985); details: read-out: percent inhibition
AMPKa1 = AMPKa1 (Homo sapiens (Human), UniProt Q13131); details: read-out: percent inhibition
MLK3 = MLK3 (Homo sapiens (Human), UniProt Q16584); details: read-out: percent inhibition
Wnk1, Wnk2, Wnk4 = system: Wnk1, Wnk2, Wnk4
RSKL1 domain1 = RSKL1 domain1 (Homo sapiens (Human), UniProt Q96S38); details: read-out: percent inhibition
ZAK = ZAK (Homo sapiens (Human), UniProt Q9NYL2); details: read-out: percent inhibition
Chain of ZAK (Q9NYL2 whole entry): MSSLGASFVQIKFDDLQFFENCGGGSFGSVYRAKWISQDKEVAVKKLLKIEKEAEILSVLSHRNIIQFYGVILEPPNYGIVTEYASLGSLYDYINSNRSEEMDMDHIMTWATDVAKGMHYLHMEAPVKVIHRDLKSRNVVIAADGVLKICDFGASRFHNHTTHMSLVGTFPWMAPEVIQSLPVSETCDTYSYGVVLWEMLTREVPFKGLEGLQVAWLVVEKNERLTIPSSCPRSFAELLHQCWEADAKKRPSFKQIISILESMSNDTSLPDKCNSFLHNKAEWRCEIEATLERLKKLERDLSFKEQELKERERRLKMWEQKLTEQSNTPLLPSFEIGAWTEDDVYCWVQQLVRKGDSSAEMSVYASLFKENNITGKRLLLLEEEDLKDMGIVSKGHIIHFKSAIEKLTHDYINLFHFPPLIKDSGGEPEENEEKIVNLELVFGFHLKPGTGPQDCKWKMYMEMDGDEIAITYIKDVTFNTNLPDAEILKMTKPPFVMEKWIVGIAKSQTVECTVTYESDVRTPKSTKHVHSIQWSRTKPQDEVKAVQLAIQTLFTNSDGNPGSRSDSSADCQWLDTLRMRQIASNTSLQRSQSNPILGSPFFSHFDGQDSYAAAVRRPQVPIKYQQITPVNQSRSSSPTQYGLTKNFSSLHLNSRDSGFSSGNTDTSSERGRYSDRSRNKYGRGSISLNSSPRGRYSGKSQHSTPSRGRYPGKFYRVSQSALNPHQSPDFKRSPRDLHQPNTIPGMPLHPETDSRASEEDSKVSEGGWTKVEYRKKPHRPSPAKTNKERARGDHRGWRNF

p70S6Kb = p70S6Kb (Homo sapiens (Human), UniProt Q9UBS0); details: read-out: percent inhibition
Chain of p70S6Kb (Q9UBS0 whole entry): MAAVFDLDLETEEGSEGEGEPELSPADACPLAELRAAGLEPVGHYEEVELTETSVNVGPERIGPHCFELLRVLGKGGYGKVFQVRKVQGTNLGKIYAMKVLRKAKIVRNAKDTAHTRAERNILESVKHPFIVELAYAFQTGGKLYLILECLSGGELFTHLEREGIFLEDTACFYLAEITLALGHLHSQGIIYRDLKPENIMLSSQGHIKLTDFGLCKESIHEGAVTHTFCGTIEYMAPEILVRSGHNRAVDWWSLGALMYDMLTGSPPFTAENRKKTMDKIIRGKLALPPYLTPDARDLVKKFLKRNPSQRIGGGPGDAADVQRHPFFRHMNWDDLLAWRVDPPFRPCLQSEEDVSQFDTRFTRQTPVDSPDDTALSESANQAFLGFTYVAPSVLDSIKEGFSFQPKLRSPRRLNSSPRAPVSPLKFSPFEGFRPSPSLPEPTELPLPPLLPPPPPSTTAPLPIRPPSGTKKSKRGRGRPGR

TAO1, TAO3 = system: TAO1, TAO3
IRAK4 = IRAK4 (Homo sapiens (Human), UniProt Q9NWZ3); details: read-out: percent inhibition
Chain of IRAK4 (Q9NWZ3 whole entry, the tested form may be a part): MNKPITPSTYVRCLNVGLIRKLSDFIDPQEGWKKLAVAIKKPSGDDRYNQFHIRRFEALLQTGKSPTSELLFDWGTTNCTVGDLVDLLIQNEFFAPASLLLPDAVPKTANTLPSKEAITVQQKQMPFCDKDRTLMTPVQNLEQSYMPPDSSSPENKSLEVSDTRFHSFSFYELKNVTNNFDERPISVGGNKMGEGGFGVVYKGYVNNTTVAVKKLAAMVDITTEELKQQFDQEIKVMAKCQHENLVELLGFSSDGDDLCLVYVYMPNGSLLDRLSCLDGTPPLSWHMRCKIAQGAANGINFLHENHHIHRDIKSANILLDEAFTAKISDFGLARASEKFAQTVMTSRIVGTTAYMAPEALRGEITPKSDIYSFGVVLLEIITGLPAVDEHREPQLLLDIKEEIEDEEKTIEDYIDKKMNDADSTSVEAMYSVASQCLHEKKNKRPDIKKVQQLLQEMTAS

RSK1 domain2 = RSK1 domain2 (Homo sapiens (Human), UniProt Q15418); details: read-out: percent inhibition
DNAPK = DNAPK (Homo sapiens (Human), UniProt P78527); details: read-out: percent inhibition
p38d, p38g = system: p38d, p38g
IKKb = IKKb (Homo sapiens (Human), UniProt O14920); details: read-out: percent inhibition
IRAK3 = IRAK3 (Homo sapiens (Human), UniProt Q9Y616); details: read-out: percent inhibition
Chain of IRAK3 (Q9Y616 whole entry): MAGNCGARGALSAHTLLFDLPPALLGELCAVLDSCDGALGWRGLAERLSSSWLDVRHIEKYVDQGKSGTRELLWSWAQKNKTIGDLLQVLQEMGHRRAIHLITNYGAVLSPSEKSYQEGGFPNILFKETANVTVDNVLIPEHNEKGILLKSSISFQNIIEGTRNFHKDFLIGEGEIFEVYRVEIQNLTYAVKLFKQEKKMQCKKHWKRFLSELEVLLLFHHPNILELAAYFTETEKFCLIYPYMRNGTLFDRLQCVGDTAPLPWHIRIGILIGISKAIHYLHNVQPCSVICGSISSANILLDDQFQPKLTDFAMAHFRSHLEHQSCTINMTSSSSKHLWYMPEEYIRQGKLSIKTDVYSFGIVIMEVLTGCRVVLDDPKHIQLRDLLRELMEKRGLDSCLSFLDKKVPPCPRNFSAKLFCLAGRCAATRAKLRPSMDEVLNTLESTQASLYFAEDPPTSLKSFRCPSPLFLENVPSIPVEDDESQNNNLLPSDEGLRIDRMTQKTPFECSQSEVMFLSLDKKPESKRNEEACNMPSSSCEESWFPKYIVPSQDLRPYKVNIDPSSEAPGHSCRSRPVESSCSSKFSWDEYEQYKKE

p38a = p38a (Homo sapiens (Human), UniProt Q16539); details: read-out: percent inhibition
Chain of p38a (Q16539 whole entry): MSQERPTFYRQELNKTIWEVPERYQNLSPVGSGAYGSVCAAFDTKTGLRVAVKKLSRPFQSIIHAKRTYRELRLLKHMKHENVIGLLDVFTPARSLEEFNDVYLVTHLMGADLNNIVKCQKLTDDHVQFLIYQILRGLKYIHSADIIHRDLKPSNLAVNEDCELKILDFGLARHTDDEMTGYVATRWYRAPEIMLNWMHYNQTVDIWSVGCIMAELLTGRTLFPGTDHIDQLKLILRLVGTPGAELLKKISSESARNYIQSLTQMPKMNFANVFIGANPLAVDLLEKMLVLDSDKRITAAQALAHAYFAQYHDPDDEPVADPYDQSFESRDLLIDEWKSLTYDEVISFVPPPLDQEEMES

OSR1 = OSR1 (Homo sapiens (Human), UniProt O95747); details: read-out: percent inhibition
Chain of OSR1 (O95747 whole entry): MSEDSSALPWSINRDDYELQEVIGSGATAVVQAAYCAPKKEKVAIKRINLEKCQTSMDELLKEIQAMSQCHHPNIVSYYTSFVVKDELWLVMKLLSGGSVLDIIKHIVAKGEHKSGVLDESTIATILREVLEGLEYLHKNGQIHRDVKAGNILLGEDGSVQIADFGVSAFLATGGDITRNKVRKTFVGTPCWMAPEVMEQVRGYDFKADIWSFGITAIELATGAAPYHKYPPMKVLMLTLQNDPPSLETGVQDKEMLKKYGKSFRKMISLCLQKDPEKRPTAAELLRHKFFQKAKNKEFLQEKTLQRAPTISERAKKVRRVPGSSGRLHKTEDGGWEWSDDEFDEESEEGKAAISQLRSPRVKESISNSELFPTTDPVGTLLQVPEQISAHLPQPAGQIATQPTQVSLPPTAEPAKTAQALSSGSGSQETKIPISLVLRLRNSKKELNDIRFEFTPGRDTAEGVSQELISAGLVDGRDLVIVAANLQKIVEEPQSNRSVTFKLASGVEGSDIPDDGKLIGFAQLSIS

PAN3 = PAN3 (Homo sapiens (Human), UniProt Q58A45); details: read-out: percent inhibition
MLKL = MLKL (Homo sapiens (Human), UniProt Q8NB16); details: read-out: percent inhibition
PIK3CG = PIK3CG (Homo sapiens (Human), UniProt P48736); details: read-out: percent inhibition
Chain of PIK3CG (P48736 whole entry): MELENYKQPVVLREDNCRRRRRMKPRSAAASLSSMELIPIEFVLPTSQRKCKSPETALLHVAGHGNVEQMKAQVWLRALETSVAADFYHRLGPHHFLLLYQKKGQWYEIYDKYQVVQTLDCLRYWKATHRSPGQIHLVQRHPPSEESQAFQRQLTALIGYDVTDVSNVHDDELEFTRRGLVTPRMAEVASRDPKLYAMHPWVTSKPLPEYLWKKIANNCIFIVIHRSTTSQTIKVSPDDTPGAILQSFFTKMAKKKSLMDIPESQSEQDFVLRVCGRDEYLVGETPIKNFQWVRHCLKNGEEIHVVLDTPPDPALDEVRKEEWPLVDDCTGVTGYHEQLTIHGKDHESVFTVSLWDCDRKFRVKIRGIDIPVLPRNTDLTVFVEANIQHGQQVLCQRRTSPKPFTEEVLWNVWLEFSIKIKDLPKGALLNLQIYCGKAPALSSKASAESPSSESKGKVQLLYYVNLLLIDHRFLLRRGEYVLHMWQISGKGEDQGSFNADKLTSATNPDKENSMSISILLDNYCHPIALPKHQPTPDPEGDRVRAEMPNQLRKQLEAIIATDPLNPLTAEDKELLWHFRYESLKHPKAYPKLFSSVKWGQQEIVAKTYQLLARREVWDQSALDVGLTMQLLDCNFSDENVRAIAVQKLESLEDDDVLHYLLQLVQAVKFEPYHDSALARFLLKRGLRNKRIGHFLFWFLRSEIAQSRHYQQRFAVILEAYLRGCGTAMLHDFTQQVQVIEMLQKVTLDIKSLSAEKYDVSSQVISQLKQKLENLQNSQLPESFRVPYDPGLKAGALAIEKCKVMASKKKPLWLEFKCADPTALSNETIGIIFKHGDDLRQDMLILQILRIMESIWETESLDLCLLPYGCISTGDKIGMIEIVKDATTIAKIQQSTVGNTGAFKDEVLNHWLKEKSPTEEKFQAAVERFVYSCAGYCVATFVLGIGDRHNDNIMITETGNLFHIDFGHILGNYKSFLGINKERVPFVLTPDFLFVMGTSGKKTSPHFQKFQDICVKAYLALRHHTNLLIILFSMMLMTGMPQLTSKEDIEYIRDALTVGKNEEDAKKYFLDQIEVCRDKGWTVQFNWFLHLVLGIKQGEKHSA

FYN = FYN (Homo sapiens (Human), UniProt P06241); details: read-out: percent inhibition
MST1, MST2 = system: MST1, MST2
JAK1 domain2 = JAK1 domain2 (Homo sapiens (Human), UniProt P23458); details: read-out: percent inhibition
ILK = ILK (Homo sapiens (Human), UniProt Q13418); details: read-out: percent inhibition
PIP4K2C = PIP4K2C (Homo sapiens (Human), UniProt Q8TBX8)
MST1 = MST1 (Homo sapiens (Human), UniProt Q13043); details: read-out: percent inhibition
MST2 = MST2 (Homo sapiens (Human), UniProt Q13188); details: read-out: percent inhibition
smMLCK = smMLCK (Homo sapiens (Human), UniProt Q15746); details: read-out: percent inhibition
AMPKa1, AMPKa2 = system: AMPKa1, AMPKa2
Erk5 = Erk5 (Homo sapiens (Human), UniProt Q13164); details: read-out: percent inhibition
IKKe = IKKe (Homo sapiens (Human), UniProt Q14164); details: read-out: percent inhibition
FER = FER (Homo sapiens (Human), UniProt P16591); details: read-out: percent inhibition
[1] = PIP4K2C (first line of two), read-out: percent inhibition
[2] = PIP4K2C (second line of two), read-out: percent inhibition
[3] = read-out: percent inhibition, PIP4K2C (first line of two)
[4] = read-out: percent inhibition, PIP4K2C (second line of two)

Chain of MAP2K4 (P45985 whole entry): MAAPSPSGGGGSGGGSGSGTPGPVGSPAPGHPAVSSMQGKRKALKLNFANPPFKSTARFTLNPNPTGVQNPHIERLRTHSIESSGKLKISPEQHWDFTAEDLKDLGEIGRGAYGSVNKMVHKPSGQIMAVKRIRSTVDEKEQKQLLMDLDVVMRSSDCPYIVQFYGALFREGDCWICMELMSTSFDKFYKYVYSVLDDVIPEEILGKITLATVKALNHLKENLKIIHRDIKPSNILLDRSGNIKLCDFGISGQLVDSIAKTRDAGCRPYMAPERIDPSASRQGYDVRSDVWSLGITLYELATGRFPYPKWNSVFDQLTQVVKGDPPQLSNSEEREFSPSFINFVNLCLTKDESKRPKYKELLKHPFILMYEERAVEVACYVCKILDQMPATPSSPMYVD

## Cn1cc(-c2c[nH]c3ncnc(N4CCOCC4)c23)cn1 [Example 1, 5-(1-Methyl-1H-pyrazol-4-yl)-4-(morpholin-4-yl)-7H-pyrrolo[2,3-d]pyrimidine]
MAP2K4; MAP2K4, 0.1 μM
  inhibition at 0.1 µM: 10.1%
MAP2K4; MAP2K4, 1 μM
  inhibition at 1 µM: 9.6%
AMPKa1; AMPKa1, 0.1 μM
  inhibition at 0.1 µM: 1.5%
AMPKa1; AMPKa1, 1 μM
  inhibition at 1 µM: 27%
MLK3; MLK3, 0.1 μM
  inhibition at 0.1 µM: 1.4%
MLK3; MLK3, 1 μM
  inhibition at 1 µM: 4.5%
Wnk1, Wnk2, Wnk4; 0.1 μM
  percent inhibition: −15%
Wnk1, Wnk2, Wnk4; 1 μM
  percent inhibition: −13.5%
RSKL1 domain1; RSKL1 domain1, 0.1 μM
  inhibition at 0.1 µM: 5.5%
RSKL1 domain1; RSKL1 domain1, 1 μM
  inhibition at 1 µM: -0.2%
ZAK; ZAK, 0.1 μM
  inhibition at 0.1 µM: 15%
ZAK; ZAK, 1 μM
  inhibition at 1 µM: 23.1%
p70S6Kb; p70S6Kb, 0.1 μM
  inhibition at 0.1 µM: 15%
p70S6Kb; p70S6Kb, 1 μM
  inhibition at 1 µM: 10.1%
TAO1, TAO3; 0.1 μM
  percent inhibition: −24%
TAO1, TAO3; 1 μM
  percent inhibition: −14.9%
IRAK4; IRAK4, 0.1 μM
  inhibition at 0.1 µM: 17.7%
IRAK4; IRAK4, 1 μM
  inhibition at 1 µM: 34.7%
RSK1 domain2; RSK1 domain2, 0.1 μM
  inhibition at 0.1 µM: -12.7%
RSK1 domain2; RSK1 domain2, 1 μM
  inhibition at 1 µM: 18.1%
DNAPK; DNAPK, 0.1 μM
  inhibition at 0.1 µM: -4.4%
DNAPK; DNAPK, 1 μM
  inhibition at 1 µM: -30%
p38d, p38g; 0.1 μM
  percent inhibition: −37.3%
p38d, p38g; 1 μM
  percent inhibition: −24%
IKKb; IKKb, 0.1 μM
  inhibition at 0.1 µM: 16.1%
IKKb; IKKb, 1 μM
  inhibition at 1 µM: 10.8%
IRAK3; IRAK3, 0.1 μM
  inhibition at 0.1 µM: 30.1%
IRAK3; IRAK3, 1 μM
  inhibition at 1 µM: 68.7%
p38a; p38a, 0.1 μM
  inhibition at 0.1 µM: -23.5%
p38a; p38a, 1 μM
  inhibition at 1 µM: -19.8%
OSR1; OSR1, 0.1 μM
  inhibition at 0.1 µM: -7.8%
OSR1; OSR1, 1 μM
  inhibition at 1 µM: -4%
PAN3; PAN3, 0.1 μM
  inhibition at 0.1 µM: 0.6%
PAN3; PAN3, 1 μM
  inhibition at 1 µM: 0.8%
MLKL; MLKL, 0.1 μM
  inhibition at 0.1 µM: 1.6%
MLKL; MLKL, 1 μM
  inhibition at 1 µM: 8.4%
PIK3CG; PIK3CG, 0.1 μM
  inhibition at 0.1 µM: -18.6%
PIK3CG; PIK3CG, 1 μM
  inhibition at 1 µM: -62.9%
FYN; FYN, 0.1 μM
  inhibition at 0.1 µM: 6.7%
FYN; FYN, 1 μM
  inhibition at 1 µM: -10.1%
MST1, MST2; 0.1 μM
  percent inhibition: −14.5%
MST1, MST2; 1 μM
  percent inhibition: 24.8%
JAK1 domain2; JAK1 domain2, 0.1 μM
  inhibition at 0.1 µM: -8.1%
JAK1 domain2; JAK1 domain2, 1 μM
  inhibition at 1 µM: -13.7%
ILK; ILK, 0.1 μM
  inhibition at 0.1 µM: -34%
ILK; ILK, 1 μM
  inhibition at 1 µM: -56.6%
PIP4K2C; [1]
  inhibition at 0.1 µM: 1.4%
  inhibition at 1 µM: -1.4%
PIP4K2C; [2]
  inhibition at 0.1 µM: -48%
  inhibition at 1 µM: 0.9%
MST1; 0.1 μM
  inhibition at 0.1 µM: 13.2%
MST1; 1 μM
  inhibition at 1 µM: 50.8%
MST2; 0.1 μM
  inhibition at 0.1 µM: 10.1%
MST2; 1 μM
  inhibition at 1 µM: 49.4%
smMLCK; smMLCK, 0.1 μM
  inhibition at 0.1 µM: -11.5%
smMLCK; smMLCK, 1 μM
  inhibition at 1 µM: -1.9%
AMPKa1, AMPKa2; 0.1 μM
  percent inhibition: 10.8%
AMPKa1, AMPKa2; 1 μM
  percent inhibition: 49.7%
Erk5; Erk5, 0.1 μM
  inhibition at 0.1 µM: -32.8%
Erk5; Erk5, 1 μM
  inhibition at 1 µM: -41.9%
IKKe; IKKe, 0.1 μM
  inhibition at 0.1 µM: 2.6%
IKKe; IKKe, 1 μM
  inhibition at 1 µM: 17.7%
FER; FER, 0.1 μM
  inhibition at 0.1 µM: -7.3%
FER; FER, 1 μM
  inhibition at 1 µM: -17.9%

## N#Cc1cccc(-c2c[nH]c3ncnc(N4CCOCC4)c23)c1 [Example 4, 3-[4-(Morpholin-4-yl)-7H-pyrrolo[2,3-d]pyrimidin-5-yl]benzonitrile]
MAP2K4
  inhibition at 0.1 µM: -20.5%
  inhibition at 1 µM: 19.2%
AMPKa1
  inhibition at 0.1 µM: -2.1%
  inhibition at 1 µM: 16.4%
MLK3
  inhibition at 0.1 µM: -14.1%
  inhibition at 1 µM: 19.9%
Wnk1, Wnk2, Wnk4; 0.1 μM
  percent inhibition: −1.9%
Wnk1, Wnk2, Wnk4; 1 μM
  percent inhibition: −1.3%
RSKL1 domain1
  inhibition at 0.1 µM: 1.1%
  inhibition at 1 µM: -1.8%
ZAK
  inhibition at 0.1 µM: -20.5%
  inhibition at 1 µM: -42.2%
p70S6Kb
  inhibition at 0.1 µM: 11.4%
  inhibition at 1 µM: 18.5%
TAO1, TAO3; 0.1 μM
  percent inhibition: −6.5%
TAO1, TAO3; 1 μM
  percent inhibition: 5.9%
IRAK4
  inhibition at 0.1 µM: -12.8%
  inhibition at 1 µM: 10.7%
RSK1 domain2
  inhibition at 0.1 µM: 2.7%
  inhibition at 1 µM: 55.8%
DNAPK
  inhibition at 0.1 µM: -19.3%
  inhibition at 1 µM: 14.7%
p38d, p38g; 0.1 μM
  percent inhibition: −17.5%
p38d, p38g; 1 μM
  percent inhibition: −5.7%
IKKb
  inhibition at 0.1 µM: -15.5%
  inhibition at 1 µM: -15.8%
IRAK3
  inhibition at 0.1 µM: 29.8%
  inhibition at 1 µM: 33.7%
p38a
  inhibition at 0.1 µM: -14.6%
  inhibition at 1 µM: -1.7%
OSR1
  inhibition at 0.1 µM: -23.1%
  inhibition at 1 µM: -55.4%
PAN3
  inhibition at 0.1 µM: -0.2%
  inhibition at 1 µM: 15.1%
MLKL
  inhibition at 0.1 µM: -10.1%
  inhibition at 1 µM: 14.5%
PIK3CG
  inhibition at 0.1 µM: -20.4%
  inhibition at 1 µM: -5.6%
FYN
  inhibition at 0.1 µM: -1.9%
  inhibition at 1 µM: -9.1%
JAK1 domain2
  inhibition at 0.1 µM: -6.2%
  inhibition at 1 µM: 18.9%
ILK
  inhibition at 0.1 µM: -8.9%
  inhibition at 1 µM: -31.6%
PIP4K2C; [3]
  inhibition at 0.1 µM: 3.1%
  inhibition at 1 µM: 58.4%
PIP4K2C; [4]
  inhibition at 0.1 µM: 9.3%
  inhibition at 1 µM: 54.3%
smMLCK
  inhibition at 0.1 µM: -21.6%
  inhibition at 1 µM: 16.2%
AMPKa1, AMPKa2; 0.1 μM
  percent inhibition: −4.5%
AMPKa1, AMPKa2; 1 μM
  percent inhibition: 32.5%
Erk5
  inhibition at 0.1 µM: -5%
  inhibition at 1 µM: -6.3%
IKKe
  inhibition at 0.1 µM: -7%
  inhibition at 1 µM: 7.4%
FER
  inhibition at 0.1 µM: -26.4%
  inhibition at 1 µM: 1.6%
